Data on five compounds can be found in patent US9463194B2, “Methods of treating patients co-infected with HIV and tuberculosis” (priority 2014, dated 2016).

Values after ≈ are worked out from the molar mass of the structure shown. “Also recorded” adds a separate entry of the source.

Data set [1] in a line: Steady-state pharmacokinetic interaction study of EVG/COBI Composition plus evening COBI plus RFB QOD in healthy volunteers. It is filed as in vivo, human. The protocol:
“Ctau” or “Ctrough” is a pharmacokinetic (PK) parameter that refers to the concentration of the drug at the end of the dosing interval. This parameter is obtained by direct measurement of the drug concentrations in a plasma sample collected from the study subject at the end of the dosing interval (i.e., 24 hours post-dose) using a validated high-performance liquid chromatography/tandem mass spectrometry (HPLC/MS/MS) bioanalytical assay.
This study evaluated the steady-state pharmacokinetics and safety of the coadministered Composition and an additional dose of COBI in combination with RFB QOD.
Lack of PK alteration bounds for 90% confidence intervals (CI) about the geometric mean ratio (GMR) (coadministration: alone) were 70-143% for EVG and RFB.

The conditions of data set [2]: RFB metabolite; cited from earlier work.
For data set [3] the following is noted: ritonavir-boosted EVG + RFB QOD; cited from earlier work.
The conditions of data set [4]: in vivo; cited from earlier work.
A further data set has as its system wild type HIV virus. As to the kind of experiment: In vitro assay of concentration-dependent inhibition of wild type HIV virus (IC95). It is filed as cell-based. From the text:
“IC95” or “EC95” refers to the inhibitory concentration required to achieve 95% of the maximum desired effect, which in the case of EVG is the inhibition of the HIV virus. This term is obtained using an in vitro assay evaluating the concentration-dependent inhibition of wild type HIV virus.

Where [5] appears, read: coadministration (Composition QD + COBI 150 mg evening + RFB 150 mg QOD) : alone, healthy volunteers, n = 14, steady state.

For the compound 25-O-desacetylrifabutin, the “exposure higher versus RFB alone” value in data set [1] (RFB metabolite, EVG QD + COBI BID + RFB QOD versus RFB alone) is approximately 12 fold. In addition, the “contribution to total antimycobacterial activity” value in data set [2] is recorded as approximately 10%.
As for `CO[C@H]1/C=C/O[C@@]2(C)Oc3c(C)c(O)c4c(c3C2=O)C2=NC3(CCN(CC(C)C)CC3)NC2=C(NC(=O)/C(C)=C\C=C\[C@H](C)[C@H](O)[C@@H](C)[C@@H](O)[C@@H](C)[C@H](OC(C)=O)[C@@H]1C)C4=O` [RFB, 1′,4-didehydro-1-deoxy-1,4-dihydro-5′-(2-methylpropyl)-1-oxorifamycin XIV], the “exposures versus reference treatment (in words)” value in data set [1] (Composition QD + COBI 150 mg evening + RFB 150 mg QOD, no-effect boundary 70-143%) is “within the predefined no-effect boundary; also recorded: clinically equivalent exposures”. For the same compound, the “Ctau higher versus reference treatments” value in data set [1] (EVG QD + COBI BID + RFB QOD versus reference treatment) was 41%. In data set [1] (setting [5]), the “AUCtau % GMR (90% CI)” value was 114.44 (100.27, 130.62) %; the “Cmax % GMR (90% CI)” value is reported as 116.26 (101.44, 133.23) %; the “Ctau % GMR (90% CI)” value is recorded as 140.76 (123.76, 160.09) %.
For the compound `CC(C)c1nc(CN(C)C(=O)N[C@H](C(=O)N[C@@H](Cc2ccccc2)C[C@H](O)[C@H](Cc2ccccc2)NC(=O)OCc2cncs2)C(C)C)cs1` [ritonavir], in data set [3], the “exposure when co-administered with RFB QOD (ritonavir boosting, in words)” value was “maintained through the end of the dosing interval”.
In the case of `CC(C)c1nc(CN(C)C(=O)N[C@@H](CCN2CCOCC2)C(=O)N[C@H](CC[C@H](Cc2ccccc2)NC(=O)OCc2cncs2)Cc2ccccc2)cs1` [COBI], in data set [4], the “exposures upon coadministration with RFB (previous research)” value is “substantially lower” and the “levels lower by 24 hrs post dose when co-administered with RFB” value is 70%.
`COc1cc2c(cc1Cc1cccc(Cl)c1F)c(=O)c(C(=O)O)cn2[C@H](CO)C(C)C` [EVG, elvitegravir]: the 95% effect concentration (IC95) in the data set with wild type HIV virus was found to be 0.045 µg/mL (≈ 0.1 µM). For the same compound, in data set [4], the “exposures upon coadministration with RFB (previous research)” value was “substantially lower” and the “levels lower by 24 hrs post dose when co-administered with RFB” value is given as 70%.
